≈ marks a conversion by molar mass, not a printed value.

Assay [1] relates to clinical isolate of C. albicans. Conditions: 10 mg/kg i.p. daily beginning 24 h after infection; cited from earlier work. The text has this: Despite the remarkable in vitro properties of HDPs, efforts to develop them as therapeutics have met with limited success. Barriers encountered include lack of peptide stability, toxicity, adverse proinflammatory properties, and poor bioavailability.

Assay [2] relates to C. albicans 53264. In words: Systemic MDR candidiasis model, survival and renal fungal burden. It counts as in vivo, CD-1 mice. Conditions: 5 mg/kg i.p. once per day for 7 days beginning 24 h p.i.; 1.8 × 10^7 blastospores i.v.; 40 days. As for the experimental part: (as in Fig. 3d). CD-1, rather than BALB/c mice were used in the C. albicans 53264 challenge studies as this mouse strain was employed by Wiederhold et al. in the assessment of caspofungin efficacy against this pathogen. […] Fungal burdens were determined in kidneys of long term survivors in the RTD-1, Caspo, and Fluco-treated cohorts (euthanized at day 40) and from moribund mice from the survival study in Fig. 7a.
(§1) BALB/c female mice (7–8 weeks old) and CD-1 female mice (4–5 weeks old) were obtained from Charles River Laboratories and allocated randomly in groups of five mice per cage. Mice were maintained on a 12 h light/dark cycle in thermostatically controlled rooms for the duration of the experiment. C. albicans inocula were prepared fresh each day from saturated cultures grown overnight in YPD medium, washed in sterile PBS, and fungi were counted with hemocytometer. Stock suspensions were prepared in sterile PBS. BALB/c mice were challenged with 2 × 10^6 CFU/ml wild-type C. albicans reference strain SC5314, while CD-1 mice were challenged with 1.8 × 10^7 CFU/ml (0.15–0.2 ml) C. albicans clinical isolate 53264 by i.v. injection into the lateral caudal tail vein using a 28 G 1/2 inch needle. Animals were treated by i.v., s.c., or i.p. routes immediately post-infection (p.i.) or 24 h p.i. with sterile saline (control), RTD-1, fluconazole, or caspofungin administered at the concentrations indicated in a 0.200 ml. Mice were weighted and monitored daily for general clinical condition. Mice were euthanized as approved by the USC IACUC and in compliance with the National Institutes of Health Guide for the Care and Use of Laboratory Animals. All experiments were repeated at least three times.
(§2) To assess systemic fungal clearance, renal fungal burden was determined. Mice were euthanized at times indicated, and both kidneys were weighed, homogenized in 5 ml of sterile PBS, and serial dilutions of homogenate were plated on YPD agar plates and incubated at 30 °C for 2 days. CFU per gram of kidney was calculated.

For assay [3], the system named is C. albicans SC5314. In words: Systemic candidiasis model, survival and renal fungal burden. It counts as in vivo, BALB/c mice. The protocol: The efficacy of RTD-1 in vivo was evaluated in an established model of systemic candidiasis using C. albicans SC5314. Both immunocompetent and immunosuppressed mouse models are employed in preclinical studies of systemic candidiasis. Since many of our preliminary studies employed the […] model, we conducted efficacy studies with RTD-1 and reference antifungal drugs in immunocompetent BALB/c mice. Mice were challenged i.v. with 3 × 10^5 blastospores at T = 0, which rapidly produces disseminated candidiasis and colonizes major organs in a manner resembling systemic candidiasis in humans. […] We analyzed the effect of a single 5 mg/kg dose of RTD-1 administered i.v., s.c., or i.p. immediately after i.v. fungal challenge, with i.p. saline as vehicle control. Fluco and Caspo, administered i.p. at 5 mg/kg, were used as drug comparators. […] In subsequent studies, antifungal agents were administered i.p. to circumvent potentially confounding effects resulting from treatment by the same route as infection, which was i.v. in all experiments.
as §1, §2

For assay [4], the system named is C. albicans SC5314. As to the kind of experiment: MIC/MFC, broth microdilution (modified CLSI M27-A2). The format is cell-based. Conditions: Candida albicans. As for the experimental part: (§3) C. albicans strains were tested against RTD-1, fluconazole, and caspofungin in microdilution broth in accordance with Clinical and Laboratory Standards Institute (CLSI) document M27-A2 with the exception that 25 mM MOPS was used in place of 165 mM MOPS, as described previously. Overnight cultures were harvested by centrifugation, washed twice with Ca^2+ and Mg^2+-free PBS, pH 7.2, and suspended in test medium (RPMI 1640 medium, 25 mM MOPS, 2 mM L-glutamine) at 10^4 CFU/ml[62]. Incubations were conducted in flat bottom, 96-well microtiter plates (Greiner bio-one, Monroe, NC) containing 0.2 ml test medium per well. Duplicate 0.1 ml aliquots of serial two-fold dilutions of peptides and antifungal drugs were dispensed into wells, each of which was inoculated with 0.1 ml of fungal cell suspension containing 1 × 10^3 CFU. Plates were incubated at 30 °C for 48 hours after which A600 was determined using a SpectraMax M5e plate reader.
(§4) Minimal fungicidal concentration (MFC) was determined by plating, on YPD plates, 10 µl from wells in MIC assay without cell growth and the first well with measurable turbidity as described[63]–[66] and corresponding aliquots from the no-agent controls. […] MFC is reported as the lowest concentration of peptide or antifungal drug that killed ≥99% of the input organisms.
(§5) MICs and MFCs of RTD-1 were also performed in the presence of 50% mouse serum. Serum was prepared from blood collected by cardiac puncture from BALB/c mice. After coagulation at room temperature, serum was collected by centrifugation (200 g for 10 min followed by 23,000 g for 15 min), and diluted with an equal volume of yeast inoculum in MIC test medium described above.
Background: Dilution methods test growth across graded concentrations, often in twofold steps.

The next assay relates to C. albicans 43001. The assay is described as above. It counts as cell-based. The protocol: as §3, §4, §5
The test system of assay [5] is C. albicans 53264. The description is as above. The format is cell-based. As for the experimental part: as §3, §4, §5
Assay [6] deals with C. albicans SC5314 biofilms. In words: Biofilm XTT metabolic assay. Conditions: pre-adhesion conditions. The format is cell-based. The protocol: (§6) The antifungal activities of RTD-1, caspofungin and fluconazole were evaluated against biofilms of C. albicans SC5314 and 53264 essentially as described by Pierce et al.[67]. Briefly, biofilms established for 0 h (preadhesion), 2 h (adherent), or 24 h (mature) were developed by adding 1 × 10^5 yeast cells in 50 or 100 µl of RPMI-1640 to wells of flat-bottom 96-well microtiter plates (Costar, Corning, NY). Fifty or 100 µl aliquots of serial 2-fold dilutions of peptide or antifungal drugs were added to wells in triplicate and incubated for 24 h or 48 h prior to analysis of biofilm metabolic activities. Concentrations of reagents used were as follows: RTD-1 - 0.09 – 100 µg/ml (0.05–48 µM), Fluco – 1–250 µg/ml (3.3–816.3 µM); Caspo- 0.003–8 µg/ml ([…]–7.3 µM). Analysis of the effect of each agent on Candida biofilms was performed using an XTT colorimetric assay. One hundred µl of 1 µM XTT/menadione added to each biofilm well, plates were incubated in the dark for 3 h at 37 °C, and 80 µl of supernatant was transferred to a new 96-well flat-bottom microtiter plate (Greiner Bio-one, Monroe, NC). Absorbance was measured at 490 nm on a SpectraMax® i3x (Molecular Devices). Readings were plotted as average of triplicates after subtracting the corresponding values for negative controls (XTT/menadione only).
A general note: Tetrazolium dyes change colour on reduction, which living cells bring about.

The test system of assay [7] is C. albicans 53264 biofilms. In words: Biofilm XTT metabolic assay. Particulars: pre-adhesion, 2 h adherent and 24 h mature biofilms. The format is cell-based. As for the experimental part: as §6

For IDR-1018, in assay [1], the renal fungal burden result is “similarly modest reduction in renal fungal burden” and the survival result was “modestly improved survival up to 8 days p.i”.

Turning to `OC(Cn1cncn1)(Cn1cncn1)c1ccc(F)cc1F` [Fluco, fluconazole], in the assay with C. albicans 53264 [2], the “survival (log-rank)” value is recorded as “significantly (P < 0.0001) improved survival”. Besides, the survival result in the assay with C. albicans SC5314 [3] (5 mg/kg i.p. once a day for 7 days, first dose 24 h after infection, 30 d) is “markedly enhanced survival”; in the assay with C. albicans SC5314 [3] (single 5 mg/kg dose at T = 0 (RTD-1 i.v., s.c. or i.p.; Fluco, Caspo i.p.), 3 × 10^5 blastospores i.v., 30 days, vs saline), “effective in enhancing survival”. The MIC with C. albicans SC5314 [4] (RPMI 1640, 25 mM MOPS, 2 mM L-glutamine, 1 × 10^3 CFU/well, 30 °C, 48 h, A600, complete inhibition of growth, duplicate) is 64 µg/mL (≈ 209 µM); against C. albicans 43001 (Candida albicans, 43001, 48 h), more than 256 µg/mL; in the assay on C. albicans 53264 [5] (Candida albicans, 53264, 48 h) it was more than 256 µg/mL. The minimum fungicidal concentration (MFC) in the assay with C. albicans SC5314 [4] (RPMI, plating of MIC wells on YPD, ≥99% killing of input inoculum) is more than 256 µg/mL; in the assay on C. albicans 43001 (Candida albicans, 43001, RPMI, plating of MIC wells on YPD, ≥99% killing of input inoculum) it was more than 256 µg/mL; with C. albicans 53264 [5] (Candida albicans, 53264, RPMI, plating of MIC wells on YPD, ≥99% killing of input inoculum), more than 256 µg/mL. In addition, the “biofilm inhibition (XTT)” value is listed as “more effective than RTD-1 at concentrations below 50 µg/ml” in assay [6] and “highly resistant” in assay [7].

In general, MIC refers to the smallest concentration in the dilution series that meets the test's criterion for growth inhibition. Usually MFC stands for the smallest concentration meeting the test's criterion for killing the fungus. The low end stands for greater fungicidal potency, the high end for weaker fungicidal potency.

The record behind these values is article PMC6858451, “Rhesus Theta Defensin 1 Promotes Long Term Survival in Systemic Candidiasis by Host Directed Mechanisms” (Scientific Reports, 2019).
